Results published in patent publication US20110059043A1, “CHEMICAL COMPOUNDS” (priority 2009, published 2011).

How the values were obtained:
[1] = target: T1, Recombinant HCV polymerase (BK strain) (Hepatitis C virus genotype 1b, UniProt P26663); experiment: HCV polymerase enzyme assay (radiometric [33P]-UTP incorporation); format: biochemical, HCV 1b
T1 construct: Recombinant HCV polymerase (BK strain) was expressed and purified from E. coli with a 21 amino acid C-terminal deletion; His6; made in house; host or cells: E. coli
T1 sequence (P26663 2420-2989): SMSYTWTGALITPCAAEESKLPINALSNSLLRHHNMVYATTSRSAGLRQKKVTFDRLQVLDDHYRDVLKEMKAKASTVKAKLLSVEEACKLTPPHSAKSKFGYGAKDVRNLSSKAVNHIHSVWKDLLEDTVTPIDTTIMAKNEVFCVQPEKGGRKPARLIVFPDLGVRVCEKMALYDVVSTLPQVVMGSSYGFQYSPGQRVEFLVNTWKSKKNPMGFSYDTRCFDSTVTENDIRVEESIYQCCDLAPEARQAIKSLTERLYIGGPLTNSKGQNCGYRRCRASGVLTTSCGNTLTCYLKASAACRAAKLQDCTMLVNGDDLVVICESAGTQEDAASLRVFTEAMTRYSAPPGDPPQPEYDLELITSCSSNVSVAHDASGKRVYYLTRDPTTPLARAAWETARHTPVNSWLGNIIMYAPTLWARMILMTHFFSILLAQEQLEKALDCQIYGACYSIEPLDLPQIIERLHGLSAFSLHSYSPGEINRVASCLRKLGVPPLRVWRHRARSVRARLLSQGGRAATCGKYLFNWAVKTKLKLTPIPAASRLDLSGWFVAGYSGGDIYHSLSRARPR
Protocol: Compounds were tested for inhibition of HCV polymerase using a radiometric [^33P]-UTP incorporation assay and a biotinylated U13:PolyA primer:template RNA substrate.
Recombinant HCV polymerase (BK strain) was expressed and purified from E. coli with a 21 amino acid C-terminal deletion and a His6-tag. The general assay buffer consisted of 20 mM Tris (pH 7.5), 25 mM KCl, 5 mM MgCl2, 3 mM DTT, 0.5 mg/ml BSA, 0.01% Tween20. The standard reaction, in 96 well plates, contained 10 μl of diluted compound, 50 μl of substrate and 40 μl of enzyme. Compounds, supplied as 10 mM stocks in DMSO, were diluted initially in neat DMSO, and subsequently buffer was added to give a DMSO concentration of 30%; 10 μl of this was added to the assay plate to give a final concentration in the 100 μl assay of 3% DMSO. The biotinylated U13:PolyA RNA substrate was pre-annealed with 40 μM 5′-biotinylated U13 (Dharmacon) and 213 μg/ml PolyA (Amersham Biosciences) in water incubated at 70° C. for 5 minutes before being cooled on ice. Substrate (50 μl) was added in buffer to give a final concentration in the 100 μl assay of 125 nM biotinylated U13:0.63 μg/ml PolyA and 200 nM UTP with 0.4 μCi [^33P]-UTP per well (Perkin Elmer). The reaction was initiated by the addition of 40 μl of enzyme in buffer to give 100 nM final concentration. The reaction was incubated at 25° C. for 100 minutes and then stopped by addition of 100 μl of 100 mM EDTA. The samples were then transferred to 96 well Streptavidin-coated FlashPlates (Perkin Elmer) and incubated at room temperature for ˜1 hour to allow binding to occur. The plates were then washed three times with phosphate-buffered saline containing 0.05% Tween20 in an automated plate washer to remove unincorporated [^33P]-UTP, and then counted in a
Each plate included a set of positive controls (no compound, maximum signal) and negative controls (no enzyme, minimum signal) and in each run at least one reference is compound was included to validate the assay. The IC50, concentration required to inhibit the enzyme activity by 50%, was calculated using an 8-point IC50 curve and fitted using the program XLfit (IDBS).

[2] = system: HCV replicon cells Huh 9B; format: cell-based; details: concentration reducing total cell area by 50% relative to DMSO controls; 72 h
Protocol: (§1) HCV replicon cells Huh 9B (ReBlikon), containing the firefly luciferase—ubiquitin—neomycin phosphotransferase fusion protein and EMCV-IRES driven HCV polyprotein with cell culture adaptive mutations.
(§2) Cells were cultured at 37° C. in a 5% CO2 environment and split twice a week on seeding at 2×10^6 cells/flask on day 1 and 1×10^6 3 days later. G418 at 0.5 mg/ml was added to the culture medium but not the assay medium. The culture medium consisted of DMEM with […] glucose and glutamax (Gibco 61965-026) supplemented with 1×non-essential amino acids (Invitrogen 11140-035), penicillin (100 IU/ml)/streptomycin (100 μg/ml) (Invitrogen 15140-122), FCS (10%, 50 ml) and […] (Invitrogen 10131-027) & 10% Australian foetal calf serum (Invitrogen 10099-141).
(§3) A flask of cells was trypsinised and a cell count carried out. Cells were diluted to 100,000 cells/ml and 100 μl of this used to seed one opaque white 96-well plate (for the replicon assay) and one flat-bottomed clear plate (for the tox assay) for every five compounds to be tested for IC50. Wells G12 and H12 were left empty in the clear plate as the blank. Plates were then incubated at 37° C. in a 5% CO2 environment for 24 h.
(§4) On the following day compound dilutions are made up in medium at twice their desired final concentration in a clear round bottomed plate. All dilutions have a final DMSO concentration of 1%.
(§5) Once the dilution plate had been made up, controls and compounds were transferred to the assay plates (containing the cells) at 100 μl/well in duplicate wells. Exception: no compound was added to wells A1 and A2 of either plate and 100 μl of 1% DMSO was added to these instead. Plates were then incubated at 37° C. with 5% CO2 for 72 h.
The clear plate was stained with 100 μl 0.5% methylene blue in 50% ethanol at room temperature for lh, followed by solvation of the absorbed methylene blue in 100 μl per well of 1% lauroylsarcosine. Absorbance of the plate was measured on a microplate spectrophotometer (Molecular Devices) and the absorbance for each concentration of compound expressed as a proportion of the relative DMSO control. The TD50, the concentration of drug required to reduce the total cell area by 50% relative to the DMSO controls, can be calculated by plotting the absorbance at 620 nm minus background against drug concentration.

[3] = system: HCV replicon cells Huh 9B; experiment: HCV replicon assay (luciferase); format: cell-based; details: Hepatitis C virus, reduction of replicon level by 50% vs untreated cell control, 72 h
Protocol: as §1, §2, §3, §4, §5
At the end of the incubation time, the cells in the white plate were harvested by washing in PBS (100 μL per well) and gently tapping dry before addition of […] of lysis buffer (25 mM tris-phosphate, 8 mM MgCl2, 1 mM DTT, 1% Triton X-100, 15% glycerol. pH to 7.8 using KH2PO4 prior to triton and glycerol addition. Substrate was prepared: 23.5 mM beetle luciferin (Promega E1603), 26 mM ATP (Sigma O-2060) in […] Tris buffer pH 7.8 aliquoted and stored at −80° C. was thawed and diluted 1:50 in luciferase assay buffer (20 mM Tricine (Sigma T-0377), 1.07 mM magnesium carbonate hydroxide (Sigma M-5671), 0.1 mM EDTA (Sigma E-5134), 2.67 mM MgSO4(BDH 101514Y), 33.3 mM dithiothreitol (Sigma 150460) pH 7.8).
The M injector of the microplate luminometer (Lmax, Molecular Devices) was primed with 5×300 μl injections of the diluted substrate. After 5-60 min incubation in lysis buffer at room temperature, a plate was inserted into the luminometer and 100 μl luciferase assay reagent was added by the injector on the luminometer. The signal was measured using a 1 second delay followed by a 4 second measurement programme. The IC50, the concentration of the drug required for reducing the replicon level by 50% in relation to the untreated cell control value, can be calculated from the plot of the percentage reduction of the luciferase activity vs. drug concentration.

Structure (SMILES)	IC50 [1] [nM]	Replicon Assay Value TD50 [2] [µM]	IC50 [3] [nM]
COCCOc1ncc(Cl)cc1C(=O)NC1N=C(c2c(Cl)cc(Cl)cc2CN2CCOCC2)c2ccccc2NC1=O (stereo not drawn) [Example 51, 5-Chloro-N-(5-(2,4-dichloro-6-(morpholinomethyl)phenyl)-2-oxo-2,3-dihydro-1H-benzo[e][1,4]diazepin-3-yl)-2-(2-methoxyethoxy)nicotinamide]	1230	>25	281
COCCOc1ccc(C)cc1C(=O)NC1N=C(c2c(Cl)cc(Cl)cc2Cl)c2ccccc2NC1=O (stereo not drawn) [Example 17, 2-(2-Methoxyethoxy)-5-methyl-N-(2-oxo-5-(2,4,6-trichlorophenyl)-2,3-dihydro-1H-benzo[e][1,4]diazepin-3-yl)benzamide]	235	>25	78.8
CCOCCCOc1ncc(F)cc1C(=O)NC1N=C(c2c(Cl)cc(Cl)cc2Cl)c2ccccc2NC1=O (stereo not drawn) [Example 39, 2-(3-Ethoxypropoxy)-5-fluoro-N-(2-oxo-5-(2,4,6-trichlorophenyl)-2,3-dihydro-1H-benzo[e][1,4]diazepin-3-yl)nicotinamide]	95	11.83	66.3
CS(=O)(=O)CCOc1ccc(Cl)cc1C(=O)NC1N=C(c2c(Cl)cc(Cl)cc2Cl)c2ccccc2NC1=O (stereo not drawn) [Example 29, 5-Chloro-2-(2-(methylsulfonyl)ethoxy)-N-(2-oxo-5-(2,4,6-trichlorophenyl)-2,3-dihydro-1H-benzo[e][1,4]diazepin-3-yl)benzamide]	747	15.249	2770
COCCOc1ccc(F)cc1C(=O)N[C@H]1N=C(c2c(Cl)cc(Cl)cc2Cl)c2ccccc2NC1=O [Example 61, (S)-5-Fluoro-2-(2-methoxyethoxy)-N-(2-oxo-5-(2,4,6-trichlorophenyl)-2,3-dihydro-1H-benzo[e][1,4]diazepin-3-yl)benzamide]	44.4	17.347	16.7
COCCN(C)c1ncc(F)cc1C(=O)N[C@H]1N=C(c2c(Cl)cc(Cl)cc2Cl)c2ccccc2NC1=O [Example 67, (S)-5-Fluoro-2-((2-methoxyethyl)(methyl)amino)-N-(2-oxo-5-(2,4,6-trichlorophenyl)-2,3-dihydro-1H-benzo[e][1,4]diazepin-3-yl)nicotinamide]	36.3	13.07	11.2
CCOCCOc1ncc(F)cc1C(=O)NC1N=C(c2c(Cl)cc(Cl)cc2Cl)c2ccccc2NC1=O (stereo not drawn) [Example 34, 2-(2-Ethoxyethoxy)-5-fluoro-N-(2-oxo-5-(2,4,6-trichlorophenyl)-2,3-dihydro-1H-benzo[e][1,4]diazepin-3-yl)nicotinamide]	91	11.884	14.1
O=C(NC1N=C(c2c(Cl)cc(Cl)cc2Cl)c2ccccc2NC1=O)c1cc(Cl)ccc1OCC1CCCO1 (stereo not drawn) [Example 9, 5-Chloro-N-(2-oxo-5-(2,4,6-trichlorophenyl)-2,3-dihydro-1H-benzo[e][1,4]diazepin-3-yl)-2-((tetrahydrofuran-2-yl)methoxy)benzamide]	296	>25	610
CO[C@@H](C)COc1ccc(Cl)cc1C(=O)NC1N=C(c2c(Cl)cc(Cl)cc2Cl)c2ccccc2NC1=O (stereo partly drawn) [Example 2, 5-Chloro-2-((S)-2-methoxypropoxy)-N-(2-oxo-5-(2,4,6-trichlorophenyl)-2,3-dihydro-1H-benzo[e][1,4]diazepin-3-yl)benzamide]	167	>25	382
COCCOc1ccc(Cl)cc1C(=O)N[C@H]1N=C(c2c(Cl)cc(Cl)cc2Cl)c2ccccc2NC1=O [Example 59, (S)-5-Chloro-2-(2-methoxyethoxy)-N-(2-oxo-5-(2,4,6-trichlorophenyl)-2,3-dihydro-1H-benzo[e][1,4]diazepin-3-yl)benzamide]	87.6	>25	45.3
COCCOc1ccc(F)cc1C(=O)NC1N=C(c2c(Cl)cc(Cl)cc2OC)c2ccccc2NC1=O (stereo not drawn) [Example 53, N-(5-(2,4-Dichloro-6-methoxyphenyl)-2-oxo-2,3-dihydro-1H-benzo[e][1,4]diazepin-3-yl)-5-fluoro-2-(2-methoxyethoxy)benzamide]	154	24.827	59.5
CCOc1cc(Cl)cc(Cl)c1C1=N[C@@H](NC(=O)c2cc(F)ccc2OCCOC)C(=O)Nc2ccccc21 [Example 70, (R)—N-(5-(2,4-Dichloro-6-ethoxyphenyl)-2-oxo-2,3-dihydro-1H-benzo[e][1,4]diazepin-3-yl)-5-fluoro-2-(2-methoxyethoxy)benzamide]	5360	24.592	737
CC(=O)NCCOc1ccc(Cl)cc1C(=O)NC1N=C(c2c(Cl)cc(Cl)cc2Cl)c2ccccc2NC1=O (stereo not drawn) [Example 21, 2-(2-Acetamidoethoxy)-5-chloro-N-(2-oxo-5-(2,4,6-trichlorophenyl)-2,3-dihydro-1H-benzo[e][1,4]diazepin-3-yl)benzamide]	98.7	13.188	824
O=C(NC1N=C(c2c(Cl)cc(Cl)cc2Cl)c2ccccc2NC1=O)c1cc(Cl)ccc1OCCOc1ccccc1 (stereo not drawn) [Example 11, 5-Chloro-N-(2-oxo-5-(2,4,6-trichlorophenyl)-2,3-dihydro-1H-benzo[e][1,4]diazepin-3-yl)-2-(2-phenoxyethoxy)benzamide]	864	>25	1150
